Source: patent US5290948A, “Process for producing polyhydroxylated piperidines and pyrrolidines and compounds thereof” (McNeilab, Inc., priority 1990, dated 1994)
Structures can show the parent of a compound that is named as a salt.

Assays:
glycosidase = test: Glycosidase inhibition, overall statement; format: biochemical
Method: Compounds 6, 11 and 12 in Table 1 were screened at a single dose (100 micromolar) against sucrase and maltase, two glycosidase enzymes. In addition compounds 1 and 2 were screened at a dose of 1 mM. These compounds are described in Examples 6, 81 10, 11 and 12. […] Compounds 1, 2, 6 and 12 are novel compounds having glucitol stereochemistry. Compound 11 is likewise novel and it has the iditol stereochemistry.
(§1) The inhibition of maltase (sucrase) tests was carried out as recited hereinafter. Partially purified α-glycosidase was isolated from the rabbit's small intestine as described in the literature (B. L. Rhinehart et al. Life Sci. 1987, 41, 2325). The α-glycosidase activity was measured using […] as substrates. β-Glycosidase from almonds was obtained from Sigma (St. Louis), and β-glycosidase activity was measured using lactose as a substrate. The incubation mixture (200 μL) consisted of substrate (100 mM), enzyme, 100 mM NaCl, 0.1 mM Na2 EDTA and either 10 mM MOPS (for pH 7), 10 mM maleic acid (for pH 6), or 10 Mm acetate (for pH 5) as buffer (adjusted to their respective pH with NaOH). Compounds dissolved in dimethylsulfoxide were added (final concentration of dimethylsulfoxide in the assay was 1%). The assay was performed at 37 deg C. for 30 minutes and arrested by incubation for 3 min at 85 deg C. After centrifugation for 2 min at 10,000 g, the supernatant was collected and processed for glucose determination. Glucose was measured with the hexokinase method (kit obtained from Boehringer Mannheim) on an EPOS 5060 EPPENDORF autoanalyser.

Maltase = test: Inhibition of maltase (α-glycosidase, maltose-cleaving activity); format: biochemical, rabbit; conditions: for Inh. of Maltase: at 100 µM (Table 1 head)
Method: […] In addition compounds 1 and 2 were screened at a dose of 1 mM. These compounds are described in Examples 6, 81 10, 11 and 12. […] Compounds 1, 2, 6 and 12 are novel compounds having glucitol stereochemistry. Compound 11 is likewise novel and it has the iditol stereochemistry.
as §1

β-Glycosidase = test: Inhibition of lactose activity (β-glycosidase); format: biochemical, almonds
Method: as §1

HIV-1 = test: Anti-HIV-1 activity in MT-4 cells; format: cell-based; conditions: for HIV1/HIV2 Act. (HIV1): Table 1, MT-4 cells, viable cells after five days; for inhibited the growth of HIV-1: at high concentrations
Method: Anti-HIV-1 activity was tested in MT-4 cells as described previously (Pauwels et al. J. Virol Methods 1987, 11, 171). The cells were either infected with HIV-1 or mock infected and incubated in the presence of the test compounds. The number of viable cells was then determined after five days (Pauwels et al. J. Virol Methods 1988, 20, 309).

HIV2 = test: Anti-HIV-2 activity; format: cell-based; conditions: Table 1
Sucrase = target: T1, Sucrase (Oryctolagus cuniculus, UniProt P07768); test: Inhibition of sucrase (α-glycosidase); format: biochemical, rabbit; conditions: at 100 mM (Table 1 head)
T1 construct: Partially purified α-glycosidase was isolated from the rabbit's small intestine; from tissue; host or cells: rabbit small intestine, partially purified
T1 sequence (P07768 1008-1827 limits assumed): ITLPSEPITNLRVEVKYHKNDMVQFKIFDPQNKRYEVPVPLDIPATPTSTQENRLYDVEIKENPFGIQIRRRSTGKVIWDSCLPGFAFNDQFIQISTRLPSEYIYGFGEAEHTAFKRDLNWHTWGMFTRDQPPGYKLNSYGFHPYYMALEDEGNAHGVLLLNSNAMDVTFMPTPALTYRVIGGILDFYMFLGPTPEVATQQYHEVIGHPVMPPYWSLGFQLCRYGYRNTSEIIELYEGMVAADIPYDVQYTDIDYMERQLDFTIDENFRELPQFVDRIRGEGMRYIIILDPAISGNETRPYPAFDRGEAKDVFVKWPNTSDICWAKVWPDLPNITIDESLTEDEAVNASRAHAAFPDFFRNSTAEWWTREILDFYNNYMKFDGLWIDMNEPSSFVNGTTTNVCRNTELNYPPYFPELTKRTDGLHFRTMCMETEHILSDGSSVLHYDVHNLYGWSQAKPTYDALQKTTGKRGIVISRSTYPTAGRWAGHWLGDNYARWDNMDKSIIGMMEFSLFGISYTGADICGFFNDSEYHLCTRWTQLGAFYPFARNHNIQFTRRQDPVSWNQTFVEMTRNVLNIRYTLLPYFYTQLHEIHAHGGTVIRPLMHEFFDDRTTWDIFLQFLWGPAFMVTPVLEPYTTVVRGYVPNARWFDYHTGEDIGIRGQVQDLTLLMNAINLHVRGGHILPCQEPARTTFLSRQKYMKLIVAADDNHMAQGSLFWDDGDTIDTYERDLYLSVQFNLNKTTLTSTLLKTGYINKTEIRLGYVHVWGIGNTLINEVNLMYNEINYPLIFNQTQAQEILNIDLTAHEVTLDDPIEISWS
T1 sequence (P07768 2-1007 partner limits assumed): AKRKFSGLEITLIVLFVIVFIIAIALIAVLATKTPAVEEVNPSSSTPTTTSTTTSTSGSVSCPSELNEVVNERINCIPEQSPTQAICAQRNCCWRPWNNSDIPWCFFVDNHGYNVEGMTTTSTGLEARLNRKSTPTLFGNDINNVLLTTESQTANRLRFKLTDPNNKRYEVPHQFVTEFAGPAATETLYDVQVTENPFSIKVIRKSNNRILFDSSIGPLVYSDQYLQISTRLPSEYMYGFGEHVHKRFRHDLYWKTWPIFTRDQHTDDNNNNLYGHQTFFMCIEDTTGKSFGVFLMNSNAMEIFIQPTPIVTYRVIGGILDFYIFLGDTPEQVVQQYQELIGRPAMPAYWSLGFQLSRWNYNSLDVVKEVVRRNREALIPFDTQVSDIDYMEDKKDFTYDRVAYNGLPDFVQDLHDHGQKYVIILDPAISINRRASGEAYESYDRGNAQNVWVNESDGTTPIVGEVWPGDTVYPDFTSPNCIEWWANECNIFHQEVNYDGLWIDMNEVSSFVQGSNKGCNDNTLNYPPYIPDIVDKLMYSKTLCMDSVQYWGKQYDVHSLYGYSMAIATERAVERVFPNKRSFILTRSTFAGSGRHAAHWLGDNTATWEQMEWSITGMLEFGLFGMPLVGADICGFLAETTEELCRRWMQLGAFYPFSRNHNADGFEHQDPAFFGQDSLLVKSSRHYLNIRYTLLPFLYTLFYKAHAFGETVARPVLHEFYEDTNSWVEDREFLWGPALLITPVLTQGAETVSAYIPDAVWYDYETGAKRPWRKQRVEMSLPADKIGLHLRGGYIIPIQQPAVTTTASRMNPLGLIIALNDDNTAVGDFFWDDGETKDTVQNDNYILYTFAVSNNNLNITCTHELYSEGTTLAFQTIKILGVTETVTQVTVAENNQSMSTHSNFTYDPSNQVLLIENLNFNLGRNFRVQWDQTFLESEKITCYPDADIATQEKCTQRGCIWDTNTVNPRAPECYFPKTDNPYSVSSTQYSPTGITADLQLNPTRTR
Method: […] In addition compounds 1 and 2 were screened at a dose of 1 mM. These compounds are described in Examples 6, 81 10, 11 and 12.
as §1

| Compound | glycosidase inhibition (in words) (glycosidase) | Inh. of Maltase (Maltase) | HIV1/HIV2 Act. (HIV1) (HIV-1) | also measured |
| --- | --- | --- | --- | --- |
| OC[C@@H]1[C@@H](O)[C@H](O)[C@H](CO)N1C(c1ccccc1)c1ccccc1 [Compound 1] | glycosidase inhibitors | 0% | Weak anti-HIV1 act. | inhibition of maltase (Maltase; at 10^-3 M (footnote 1)): 40%; inhibition of lactose activity (β-Glycosidase; at 10^-4 M, pH 5 (footnote 1)): 58%; inhibited the growth of HIV-1 (HIV-1): inhibited the growth of HIV-1 at high concentrations |
| OC[C@@H]1N[C@H](CO)[C@@H](O)[C@@H]1O [Compound 2, 2,5-Anhydro-2,5-imino-D-glucitol] | glycosidase inhibitors | 0% | No anti-HIV1 act. | inhibition of lactose activity (β-Glycosidase; at 10^-3 M, pH 5 (footnote 2)): 44% |
| OC[C@@H]1[C@@H](O)[C@H](O)[C@@H](CO)N1C(c1ccccc1)c1ccccc1 [Compound 3, N-Benzhydryl-2,5-anhydro-2,5-imino-D-mannitol] |  | 0% | No anti-HIV1 act. |  |
| OCC1[C@@H](O)[C@H](O)C(CO)N1CCCOc1ccc(F)cc1 (some centres unmarked) [Compound 8] |  | 0% | No anti-HIV1 act. |  |
| OC[C@@H]1[C@@H](O)[C@H](O)[C@H](CO)N1c1ccc(F)cc1 [Compound 9, N-(4-Fluorophenyl)-2,5-anhydro-2,5-imino-D-glucitol] |  | 0% | No anti-HIV1 act. |  |
| OC[C@@H]1[C@@H](O)[C@H](O)[C@@H](CO)N1c1ccc(F)cc1 [Compound 10] |  | 0% | No anti-HIV1 act. |  |
| OC[C@H]1[C@@H](O)[C@H](O)[C@H](CO)N1c1ccc(F)cc1 [Compound 11] | glycosidase inhibitors | 19% | No anti-HIV1 act. |  |
| OC[C@@H]1[C@@H](O)[C@H](O)[C@H](CO)N1CCCC(c1ccc(F)cc1)c1ccc(F)cc1 [Compound 12, N-[4,4-bis(4-Fluorophenyl)butyl]-2,5-anhydro-2,5-imino-D-glucitol tosylate] | glycosidase inhibitors | 20% | Weak anti-HIV1 act. | inhibited the growth of HIV-1 (HIV-1): inhibited the growth of HIV-1 at high concentrations |
| CCOC(=O)N1CCC(N2C(CO)[C@@H](O)[C@H](O)C2CO)CC1 (some centres unmarked) [Compound 13] |  | 0% | No anti-HIV1 act. |  |
| OCCCN1C(CO)[C@@H](O)[C@H](O)C1CO (some centres unmarked) [Compound 15] |  | 0% |  |  |
| CCCCN1[C@H](CO)[C@@H](O)[C@H](O)[C@@H]1CO [Compound 16] |  | 0% |  |  |
| OCC1[C@@H](O)[C@H](O)C(CO)N1CCc1ccc(F)cc1 (some centres unmarked) [Compound 17] |  |  | No anti-HIV1 act. |  |
| COC1CN(CCCOc2ccc(F)cc2)CCC1N1C(CO)[C@@H](O)[C@H](O)[C@H]1CO (some centres unmarked) [Compound 22] |  | 0% | No anti-HIV1 act. |  |
| N-Stearyl-2,5-anhydro-2,5-imino-D-glucitol [Compound 6] | glycosidase inhibitors | 1% | Weak anti-HIV1 and HIV2 | HIV1/HIV2 Act. (HIV2) (HIV2): Weak anti-HIV1 and HIV2; Inh. of (Sucrase) (Sucrase): 6%; inhibited the growth of HIV-1 (HIV-1): inhibited the growth of HIV-1 at high concentrations |
